What all share (experiment): biochemical
One test addresses T1, ZmDRIK1-R187-P492 (Zea mays, UniProt C0P4K9).
T1 construct: kinase domain, R187-P492
T1 sequence (C0P4K9 1-514): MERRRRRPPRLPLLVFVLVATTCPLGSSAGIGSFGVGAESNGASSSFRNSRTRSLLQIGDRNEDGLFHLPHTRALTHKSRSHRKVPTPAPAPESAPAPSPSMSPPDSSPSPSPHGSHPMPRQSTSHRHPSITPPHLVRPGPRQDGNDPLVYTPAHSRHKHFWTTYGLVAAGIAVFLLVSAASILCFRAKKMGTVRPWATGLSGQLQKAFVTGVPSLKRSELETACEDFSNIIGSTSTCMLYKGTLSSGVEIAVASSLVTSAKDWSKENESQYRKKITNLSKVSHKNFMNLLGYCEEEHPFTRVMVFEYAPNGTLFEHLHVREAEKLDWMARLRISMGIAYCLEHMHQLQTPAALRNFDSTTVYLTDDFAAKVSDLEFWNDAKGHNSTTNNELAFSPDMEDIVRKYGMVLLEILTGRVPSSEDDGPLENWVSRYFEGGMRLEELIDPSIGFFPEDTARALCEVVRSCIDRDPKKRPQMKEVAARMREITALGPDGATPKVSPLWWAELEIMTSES

A further test concerns the target T2, ZmDRIK1-K217-S514 (Zea mays, UniProt C0P4K9).
T2 construct: kinase domain, K217-S514
T2 sequence (C0P4K9 1-514): T1 sequence (C0P4K9 1-514)

In test [1] the target is T3, ZmDRIK1 (DROUGHT RESPONSIVE INACTIVE KINASE 1), kinase domain (Zea mays, UniProt C0P4K9).
T3 construct: gene ZEAMMB73_Zm00001d028770; ZmDRIK1-KD R187-S514 (kinase domain)
T3 sequence (C0P4K9 187-514): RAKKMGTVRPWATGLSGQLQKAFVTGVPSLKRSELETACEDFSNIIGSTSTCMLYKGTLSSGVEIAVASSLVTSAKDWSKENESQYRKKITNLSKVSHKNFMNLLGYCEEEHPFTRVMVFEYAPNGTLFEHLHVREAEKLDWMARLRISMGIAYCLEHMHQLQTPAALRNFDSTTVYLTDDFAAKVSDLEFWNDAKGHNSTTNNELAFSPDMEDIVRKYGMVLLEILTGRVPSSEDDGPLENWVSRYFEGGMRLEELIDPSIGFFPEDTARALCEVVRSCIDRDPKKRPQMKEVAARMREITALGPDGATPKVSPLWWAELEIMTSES

The next test concerns the target T4, ZmDRIK1-K217-P492 (Zea mays, UniProt C0P4K9).
T4 construct: kinase domain, K217-P492
T4 sequence (C0P4K9 1-514): T1 sequence (C0P4K9 1-514)

Setting [2] is: read-out: dTm B, DSF, Boltzmann fit, 0.1% DMSO.
[3] abbreviates: read-out: dTm B, sheet ZmDRIK1-K217-S514;, DSF, Boltzmann fit, 0.1% DMSO.
Where [4] appears, read: read-out: dTm B, sheet ZmDRIK1-R187-S514;, DSF, Boltzmann fit, 0.1% DMSO.
[5] abbreviates: read-out: dTm B, sheet ZmDRIK1-K217-P492;, DSF, Boltzmann fit, 0.1% DMSO.

Like-named read-outs stand apart in the source and are kept apart here.

This is an account of results in paper PMC7158045 (BMC Plant Biology, 2020).

As for `COc1ccc(N(C(=O)Oc2c(C)cccc2C)c2ccnc(Nc3ccc(N4CCN(C)CC4)cc3)n2)c(OC)c1` [WH-4-023], the ΔTm at 10 µM is -0.703 °C on ZmDRIK1-R187-P492 (read-out: dTm B), -0.646 °C at ZmDRIK1-K217-S514 (read-out: dTm B), -0.841 °C in test [1] (read-out: dTm B) and -0.826 °C at ZmDRIK1-K217-P492 (read-out: dTm B).
On to `O=C(Nc1c[nH]nc1-c1nc2ccc(CN3CCOCC3)cc2[nH]1)NC1CC1` [AT9283], for which the ΔTm at 10 µM is -0.23 °C on ZmDRIK1-R187-P492 (setting [2]), -0.536 °C on ZmDRIK1-K217-S514 (setting [3]), -0.914 °C in test [1] (setting [4]) and -0.742 °C on ZmDRIK1-K217-P492 (setting [5]).
In the same order, the values of `CCN1CCN(C(=O)Cc2ccc(Nc3ncc(F)c(Nc4ccc(C(=O)Nc5ccccc5Cl)cc4)n3)cc2)CC1` [Aurora A Inhibitor I] are -0.457 °C, -0.286 °C, -0.616 °C and -1.33 °C.
For `CS(=O)(=O)c1ccc(-c2cnc(N)c(C(=O)Nc3ccccc3)n2)cc1` [VE-821], the ΔTm at 10 µM on ZmDRIK1-R187-P492 (setting [2]) is -0.26 °C; at ZmDRIK1-K217-S514 (setting [3]), -0.669 °C; in test [1] (setting [4]), -0.715 °C; on ZmDRIK1-K217-P492 (setting [5]) it was -0.928 °C.
The corresponding values for `C=CC(=O)Nc1cccc(Oc2nc(Nc3ccc(N4CCN(C)CC4)cc3)ncc2Cl)c1` [WZ3146] are -0.00788 °C, -0.0548 °C, -0.897 °C and -0.696 °C.
In the same order, the values of `CNC(=O)c1cccc(-c2ccc3c(N4CCOC[C@@H]4C)nc(N4CCOC[C@@H]4C)nc3n2)c1` [AZD2014] are -0.208 °C, -0.171 °C, -0.732 °C and -0.984 °C.
On to `COc1cc(N2CCC(N)CC2)ccc1Nc1ncc(Cl)c(-c2c[nH]c3ccccc23)n1` [AZD3463], for which the ΔTm at 10 µM on ZmDRIK1-R187-P492 (setting [2]) was 0.74 °C; on ZmDRIK1-K217-S514 (setting [3]) it was 0.133 °C; in test [1] (setting [4]), -0.307 °C; at ZmDRIK1-K217-P492 (setting [5]) it was -0.184 °C.
Turning to `CCOc1ccn(-c2ccc(F)cc2)c(=O)c1C(=O)Nc1ccc(Oc2ccnc(N)c2Cl)c(F)c1` [BMS-777607], the ΔTm at 10 µM on ZmDRIK1-R187-P492 (setting [2]) is -0.218 °C; at ZmDRIK1-K217-S514 (setting [3]) it was -0.662 °C; in test [1] (setting [4]), -1.06 °C; on ZmDRIK1-K217-P492 (setting [5]) it was -0.979 °C.
In the case of `Cn1cc(-c2[nH]c3cc(NC(=O)[C@H](N)C4CCCCC4)cc4c3c2C=NNC4=O)cn1` [PF-477736], the ΔTm at 10 µM is -0.228 °C on ZmDRIK1-R187-P492 (setting [2]), -0.328 °C on ZmDRIK1-K217-S514 (setting [3]), -0.63 °C in test [1] (setting [4]) and -1.09 °C at ZmDRIK1-K217-P492 (setting [5]).
The corresponding values for `Nc1cccc(-c2cc3c(Oc4cccc(O)c4)ncnc3[nH]2)c1` [TWS119] are -0.00936 °C, -0.297 °C, -0.75 °C and -0.79 °C.
In the same order, the values of `Nc1nc(Nc2ccc(S(N)(=O)=O)cc2)nn1C(=O)c1c(F)cccc1F` [JNJ-7706621] are -0.0807 °C, -0.319 °C, -0.794 °C and -0.924 °C.
The corresponding values for `CC(C)CCN1c2nc(Nc3cc(F)c(O)c(F)c3)ncc2N(C)C(=O)C1C` (stereo not drawn) [BI-D1870] are -0.479 °C, -0.612 °C, -0.701 °C and -1.48 °C.
In the case of `C=CC(=O)N1CCC[C@@H](n2nc(-c3ccc(Oc4ccccc4)cc3)c3c(N)ncnc32)C1` [Ibrutinib (PCI-32765)], the ΔTm at 10 µM at ZmDRIK1-R187-P492 (setting [2]) is -0.476 °C; on ZmDRIK1-K217-S514 (setting [3]) it was -0.359 °C; in test [1] (setting [4]) it was -0.597 °C; at ZmDRIK1-K217-P492 (setting [5]) it was -1.14 °C.
In the same order, the values of `Cc1cc(C(=O)NOCCO)c(Nc2ccc(I)cc2F)n(C)c1=O` [AZD8330] are -0.162 °C, -0.42 °C, -0.935 °C and -0.83 °C.
For `C=CC(=O)Nc1cccc(Oc2nc(Nc3ccc(N4CCN(C)CC4)cc3OC)ncc2Cl)c1` [WZ4002], the ΔTm at 10 µM on ZmDRIK1-R187-P492 (setting [2]) is -0.434 °C; on ZmDRIK1-K217-S514 (setting [3]), -0.557 °C; in test [1] (setting [4]), -1.27 °C; at ZmDRIK1-K217-P492 (setting [5]), -1.2 °C.
